Measured values reported in US20130064812A1, “COMBINATION THERAPIES FOR HEMATOLOGIC MALIGNANCIES” (Gilead Calistoga LLC, priority 2011, published 2013).

Experiments:
[1] = system: CLL cells with purified B-cells; experiment: IgM production by B-cells cultured with treated CLL cells (ELISA); assay type: cell-based, human; details: 0.5 μM lenalidomide and/or 10 μM compound, 48 hours, N=6; p<0.0001
Experimental: Quantization of IgM was determined. Briefly, lenalidomide-treated or vehicle control-treated CLL cells, were irradiated and placed in culture with target, purified B-cells, in the absence or presence of PWM ([…]).
Given the importance of the CD40-CD154 axis for lenalidomide-treated CLL cells to promote normal B-cells to produce immunoglobulin, the compound of formula I was assessed to see whether it could prevent this occurrence. […] CLL cells were irradiated (20 Gy) and placed in culture with purified B-cells, in the absence or presence of 5 μg/mL PWM. Quantification of IgM was determined by ELISA analysis.

[2] = target: mTOR (Homo sapiens, UniProt P42345); experiment: InvitroGen Adapta kinase assay, mTOR; assay type: biochemical
[3] = system: CLL cells with StromaNKTert; experiment: Viability / apoptosis of stroma-exposed CLL cells (Annexin V/PI); assay type: cell-based, human
Experimental: CLL cells were cultured under standardized conditions on stromal cell lines or primary NLC. Briefly, stromal cells were seeded one day prior to each experiment onto 24-well plates (Corning Life Sciences) at a concentration of 3×10^5 cells/mL/well and incubated at 37° C. in 5% CO2. Stromal cell confluence was confirmed by phase contrast microscopy, and CLL cells were then added onto the stromal cell layer at a concentration of 3×10^6 cells/mL. Cultures were then treated with compounds for the specified time periods. CLL cells were removed for analysis by gentle pipetting with media, and were then washed in PBS prior to analysis. A 24-hour co-culture time point was used unless otherwise indicated.
CLL cell viability was determined by analysis of Annexin V-FITC (BD Biosciences, San Diego, Calif.) and Propidium Iodine (PI) (Sigma) by FACS.
To determine whether PI3K inhibition increased the sensitivity of stroma-exposed CLL cells by increasing priming, PB-derived CLL cells cultured with or without StromaNKTert cells for 24 hours and were examined using Annexin-PI and BH3 profiling. […] Stromal co-culture of four CLL patient samples led to protection from apoptosis in untreated cells.

[4] = target: PIP5Kβ (Homo sapiens, UniProt O14986); experiment: InvitroGen Adapta kinase assay, PIP5Kβ; assay type: biochemical; details: Other Phosphoinositide kinases; head prints no unit
Sequence of PIP5Kβ (O14986 whole entry): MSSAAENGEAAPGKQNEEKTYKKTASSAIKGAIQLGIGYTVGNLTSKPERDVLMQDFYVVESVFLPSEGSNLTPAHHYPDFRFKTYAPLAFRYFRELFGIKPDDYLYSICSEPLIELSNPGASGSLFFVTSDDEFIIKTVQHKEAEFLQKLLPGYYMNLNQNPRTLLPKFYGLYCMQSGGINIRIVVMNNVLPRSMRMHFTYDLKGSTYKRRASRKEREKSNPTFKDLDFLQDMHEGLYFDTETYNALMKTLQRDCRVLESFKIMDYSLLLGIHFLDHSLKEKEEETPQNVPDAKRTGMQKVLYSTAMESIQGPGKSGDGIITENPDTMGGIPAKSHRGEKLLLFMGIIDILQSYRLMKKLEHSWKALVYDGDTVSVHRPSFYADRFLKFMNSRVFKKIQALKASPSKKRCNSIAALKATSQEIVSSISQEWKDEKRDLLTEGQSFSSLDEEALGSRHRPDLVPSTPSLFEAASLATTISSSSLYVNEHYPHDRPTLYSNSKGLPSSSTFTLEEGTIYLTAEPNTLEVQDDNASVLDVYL

[5] = system: HuVECs; experiment: In vitro angiogenesis assay (tube formation); assay type: cell-based, human; details: 0, 1.0, or 10 μM, 8 h; p<0.05
Experimental: HUVEC and endothelial growth media were obtained from Lonza (Walkersville, Md., USA). […] After 8 h, tube formation was evaluated using Leika DM IL microscopy (Leica Microsystems, Wetzlar, Germany) and analyzed with IM50 software (Leica Microsystems Imaging Solutions, Cambridge, UK). HUVEC cell migration and rearrangement was visualized, and the number of branching points counted.
The effect of P110δ inhibition on angiogenesis was investigated.

[6] = system: INA-6 and LB MM cells; experiment: Autophagy / AVO development in MM cells; assay type: cell-based, human
Experimental: To detect and quantify AVOs in compound 1 or 3MA-treated cells, vital staining was performed for 15 min with acridine orange at a final concentration of 1 μg/ml. Samples were examined under a fluorescence microscope.
Autophagosome formation was defined by the accumulation of LC3; arrows indicate autophagosomes, FIG. 33A.
GAPDH served as a loading control.

[7] = system: CLL; experiment: ALC and lymphadenopathy in a patient with CLL; assay type: in vivo, human; details: 1 cycle (28 days) oral
Experimental: This example provides data relating to the concentration of absolute lymphocyte count (ALC) in the blood of a patient with CLL after 1 cycle (28 days) of treatment with oral administration of the compound of formula I. The blood ALC concentration was measured over a period of 4 weeks after completion of one cycle of treatment. A 55% decrease in lymphocytosis and a 38% decrease in lymphadenopathy as a result of treatment were observed. A marked decrease in ALC concentration is observed between week 1 and week 2, FIG. 13.

[8] = system: MM cell lines
[9] = system: patient MM cells
Experimental: All MM cell lines were cultured in RPMI1640 medium. Bone marrow stromal cells (BMSCs) were cultured in Dulbecco's modification of Eagle's medium (DMEM) (Sigma) containing 15% fetal bovine serum, 2 mM L-glutamine (Life Technologies), 100 U/mL penicillin, and 100 μg/mL streptomycin (Life Technologies). […] Patient MM and BM cells were obtained from BM samples after informed consent was obtained per the Declaration of Helsinki and approval by the Institutional Review Board of the Dana-Farber Cancer Institute (Boston, Mass.). BM mononuclear cells were separated using Ficoll-Paque™ density sedimentation, and plasma cells were purified (>95% CD138+) by positive selection with anti-CD138 magnetic activated cell separation micro beads (Miltenyi Biotec, Auburn, Calif.). Tumor cells were also purified from the BM of MM patients using the RosetteSep negative selection system (StemCell Technologies, Vancouver, BC, Canada).
Data represent mean±SD viability, assessed by MTT assay of triplicate cultures, expressed as percentage of untreated controls.

[10] = human, in vivo
Experimental: This example provides data relating to the concentration of the compound of formula I in the blood of a healthy human subject on day 7. The concentration was monitored over a period of 12 hours, after oral administration of 50, 100, or 200 mg BID of the compound of formula I on day 7 of the study. FIG. 11 follows the plasma concentration of the drug over a period of 12 hours from administration.
In addition, single dose studies wherein 17-400 mg of the compound of formula I was administered in healthy volunteers was carried out.
Table 1, below, provides an overview of the subjects in the study, wherein either a singe dose (SD) or multiple dose (MD) of the compound of formula I is administered to a subject at varying amounts. The “n” values refer to the number of subjects in each group.

[11] = system: INA-6 cells; experiment: Cleavage of caspases and PARP in INA-6 cells (western blot); assay type: cell-based, human; details: INA-6, 0-5 μM, 120 h
Description: Whole-cell lysates were subjected to sodium dodecyl sulfate-polyacrylamide gel electrophoresis (SDS-PAGE) separation, transferred to Pure Nitrocellulose membranes (Bio-Rad Laboratories, Hercules, Calif.), and immunoblotted with anti-AKT, phospho(p)-AKT (Ser473, Thr 308), ERK1/2, P-ERK1/2, P-PDK1, STAT, P-STAT, P-FKRHL, P-70S6K, LC3, and PI3K/p110α Abs (Cell Signaling Danvers, Mass.); anti-p110β, PI3K/p110δ, Glyceraldehyde 3-phosphate dehydrogenase (GAPDH), α-tubulin, and actin Abs (Santa Cruz Biotechnology, CA); and anti-p110γ Ab (Alexis, San Diego, Calif.): and anti-LC3 Ab (Abgent, San Diego, Calif.).
Total cell lysates were subjected to immunoblotting using anti-caspase-3, -8, -9, PARP, and α-tubulin Abs. FL indicates full-length protein, and CL indicates cleaved protein.

[12] = system: over 350 protein kinases; experiment: Ambit KINOMEscan kinome-wide protein kinase screen; assay type: binding; details: 10 μM, over 350 protein kinases (over 300)
Description: Examples of some kinases in the screen are shown below in Table 3.

## CC[C@H](Nc1ncnc2[nH]cnc12)c1nc2cccc(F)c2c(=O)n1-c1ccccc1 [Compound I, 5-fluoro-3-phenyl-2-[1-(9H-purin-6-ylamino)-propyl]-3H-quinazolin-4-one]
[1]
  production of IgM: completely prevent production of IgM
[2]
  IC50: > 1 µM
[3]; 10 μM, untreated less than 10%
  apoptosis in stroma-exposed CLL cells: More than 40%
[3]; four patient samples, 24 hours
  apoptosis versus control in the absence of stroma: induce more apoptosis than the control
  apoptosis versus control in the presence of stroma: induce significantly more apoptosis than the control
[3]; two patients, 24 hours, ABT-737 100 nM, compound I 10 μM
  stroma-mediated resistance (CLL cell viability): profound stroma-mediated resistance
[3]; two resistant CLL patient samples
  sensitivity of CLL cells to ABT-737 in the presence of stroma: restored sensitivity of CLL cells to ABT-737 in the presence of stroma
[4]
  IC50: > 1 µM
[5]
  capillary-like tube formation: inhibited capillary-like tube formation in a dose-dependent fashion
[6]; 5 μM, 6 h, INA-6 and LB
  LC3 staining: markedly increased LC 3 staining
[6]; INA-6, 6 h
  LC3-II and Beclin1 protein: markedly increased LC3-II and Beclin1 protein
[6]; acridine orange staining, LB and INA-6
  acidic vesicular organelle (AVO) development: development of AVOs
[7]
  decrease in lymphadenopathy: 38%
  decrease in lymphocytosis: 55%
[8]
  cytotoxicity against p110δ-positive MM cells: induced cytotoxicity against LB and INA-6 mM cells (p110δ-positive) in a dose- and time-dependent fashion
  cytotoxicity in p110δ-negative cell lines: minimal cytotoxicity
[9]
  cytotoxicity against patient MM cells: induced cytotoxicity against patient MM cells
[10]
  concentration level versus PI3Kδ EC50 in basophil: exceeds the PI3Kδ EC50 concentration in basophil for at least 12 hours
  tolerability in normal healthy volunteers: well tolerated at doses above commonly used therapeutic doses
[11]
  cleavage of caspases and PARP: Significantly increased cleavage of caspase-8, caspase-9, caspase-3, and PARP
[12]
  activity in kinome-wide protein kinase screen: failed to detect any activity
[12]; listed as compound of formula I
  activity in kinome-wide protein kinase screen: little activity
